According to US5726203A, “Qinghaosu derivatives against AIDS” (priority 1993, dated 1998):
Like-named read-outs stand apart in the source and are kept apart here.

How the values were obtained:
U937 HIV-1 [1] = assay: Inhibition effect on HIV-1 infected U937 cells, activity of reverse transcriptase; assay type: cell-based; settings: 50 μg/ml, control 24502
Source text: (§1) Furthermore, a part of the compounds according to the present invention were used to test their inhibition effect on U937 cell line (macrophage cell line)according to the methods in Experiment 1.

HIV-1 (MT4) = assay: Anti-HIV effect on MT4 cells, virus antigen expression (immunoenzymatic method); assay type: cell-based
Source text: The virus used was HIV-1 which had been obtained from Professor Montagnier of the Pastear Institute, France. The virus titer used in the experiment was 1×10^4 TCID50 /ml. The cell culture used was CEM cell line which was cultivated in the HIV laboratory of Institute of Virology, Chinese Academy of Preventive Medicine, for cultivation storage of HIV-1.
The compounds used in the experiment were qinghaosu, dihydroqinghaosu, Artesunate, Artemether, dihydroqinghaosu-methylcarbamate, dihydroqinghaosu-benzenecarbamate, qinghaosu-morpholinyl propylether maleate, dihydroqinghaosu-diethyl amino ethyl ether maleate, deoxyqinghaosu-morpholinyl ethyl ether maleate, qinghaosu-morpholinyl propanol ether maleate, qinghaosu-3,5-dimonpholinyl methyl-4-hydroxy benzyl ether maleate, dihydroqinghaosu-m-chlorobenzoate, qinghaosu-3-pyrrolidinylmethyl-4-hydroxybenzoate oxalate, and qinghaosu-3-morpholinylmethyl-4-hydroxybenzoate oxalate. […] The concentration of the original solution of these compounds were all 1 mg/ml.
(§2) a. Freshly cultured MT4 cells (5×10^5 /ml) were co-cultivated with the virus fluid (10^3 TCID50 /ml) in a CO2 incubator at 37° C. for 1-1.5 hours. RPMI 1640 complete medium (containing 10% Bovine serum and antibiotics, such as penicillin) was used to wash the unbound virus.
(§3) Complete medium was added to correct the concentration for use.
(§4) The experiment was carried out on the plates with 96 wells. 0.1 ml of the above-mentioned infected MT4 cell suspension was added into each well, and then 0.1 ml of various concentrations of the drugs were added. […] Each concentration of the drugs was added into two wells. Both the experiment group and the control group were incubated in a CO2 incubator at 37° C. The drug solution were changed 3 days later, and the following observations were carried out 6 days afterwards.
b. Observation on the growth situation of cells. Trypan blue dye was used to observe the quantity of live cells in each group.
(§5) c. Determination of the virus antigen expression. The immunoenzymatic method was used to examine the virus antigen expression. Cells from each group were separately smeared in two wells. They were fixed with cold acetone, HIV-positive serum was dropped into the wells. After incubated in a CO2 incubator at 37° C. for 30 minutes, they were washed with PBS for 3 times. Enzyme-labelled SPA was dropped into the wells. They were incubated in the same condition for 30 minutes, washed with PBS for 3 times, and then put in substrate solution to stain for 2-3 minutes, washed with distilled water, and observed under microscope. Normal cells were colorless, whereas virus-carrying cells appeared browrish red.
The mark used were as follows:
The experiment was repeated two to three times.
The concentration of the original fluid of these compounds were all 1 mg/ml. 0.1 ml was taken and added into 0.1 ml of virus-carrying cell suspension, thus the reaction concentrations were as follows: in the original fluid group, 0.1 mg/0.2 ml, i.e., 0.5 mg/ml; in 1×10^-1group, 0.05 mg/ml; in 1×10^-2 group, 0.005 mg/ml; in 1×10^-3 group, 0.0005 mg/ml, i.e., 0.5 μg/ml; and on the analogy of this.

U937 HIV-1 [2] = assay: Inhibition effect on HIV-1 infected U937 cells (macrophage cell line), HIV antigen test (IE); assay type: cell-based; settings: U937 HIV-1; 50 μg/ml
Procedure: as §2, §3, §4, §5, §1

Plasmodium Berghei = assay: Peters' four day inhibition test in mice, erythrocytic stage of Plasmodium Berghei; assay type: in vivo; settings: once a day D0-D3, Hybrid Kunming strain mice, read-out: SD50 (the source's name)
Source text: Effect on Erythrocytic Stage of Plasmodium Berghei 1. "Four day inhibition test" in mice To determinate the SD50 with Peters' "four day inhibition test". Hybrid Kunming strain mice, body weight 18-22 g, were inculated with 1×10^7 parasites infected RBC intraperitoneally on D0. Dihydroqinghaosu-methylcarbamate, dihydroqinghaosu-butylcarbamate, dihydroqinghaosu-benzenecarbamate and dihydroqinghaosu-4-nitrobenzenecarbamate with different concentration were given once a day from D0 -D3. Blood smears from mouse's tail were made on D4, stained with Gimsa reagent and examined under microscope to count the infected and uninfected erthrocyte to get infected rate. Inhibitory rates of different dosages were calculated by following formula. The SD50 was calculated by the simplified probit analysis: [formula]

[3] = Subacute toxicologic study; settings: in vivo, read-out: basic safe dosage
Toxoplasma Gendei = assay: Antitoxoplasma effect in vitro in BALB/C mouse macrophages; assay type: cell-based; settings: for Infected rate of macrophages / No. of parasites in 100 macrophages / inhibition at 50 µg/mL / inhibition at 100 µg/mL / inhibition at 200 µg/mL: 48 hours; for Infected rate of macrophages: control 75.60; for No. of parasites in 100 macrophages: control 544.00; for inhibition at 50 µg/mL / inhibition at 100 µg/mL / inhibition at 200 µg/mL: Toxoplasma, Macrophage
Procedure: In vitro incubation was used in the experiment. Macrophages were taken from intraperitoneal of the uninfected BALB/C mice (obtained from Universite Pierre et Marie Curie), centrafuged, washed and counted. Around 1.28×10^5 cells was added into each culture dish, incubated at 37° C. for 3 hours to let the cells to be adherented, then infected by parasites (Toxoplasma Gendei, obtained from Universite Pierre et Marie Curie), in which parasite number was 1×106, so that there were 5 organisms per macrophage. The dishes were incubated at 37° C. for 48 hours, different concentration, (i.e., 50 μg/ml, 100 μg/ml, 200 μg/ml) of the compound according to the present invention was added in. In a control group, no drug was added in. After being cultured at 37° C. for 48 hours, dishes of compound treated groups and control group were colorated. Under microscope, the number of infected and uninfected macrophages in each dishes were counted and to calculated infected rate of macrophage and to count the number of parasites in 100 macrophages.

With CNC(=O)OC1OC2OC3(C)CCC4C(C)CCC(C1C)C24OO3 (stereo not shown) [Dihydroqinghaosu-methylcarbamate, Dihydroqinghaosu-Methylcarbamate] the “Activity of reverse transcription (CPM)” value (U937 HIV-1 [1]) was 4463 CPM, the “effect on HIV-1 (MT4), virus antigen expression” value (“effect on HIV-1 (MT4)” below) (HIV-1 (MT4); 1 × 10^-1 (50 μg/ml)) was “- (positive cells were not seen in the whole well)” and the “effect on HIV-1 (MT4)” value (HIV-1 (MT4); 1 × 10^-2 (5 μg/ml)) was “- (positive cells were not seen in the whole well)”. The “effect on HIV-1 (MT4)” value (HIV-1 (MT4); 1 × 10^-3 (0.5 μg/ml)) was “- (positive cells were not seen in the whole well)”, the “effect on HIV-1 (MT4)” value (HIV-1 (MT4); 1 × 10^-4 (0.05 μg/ml)) was “- (positive cells were not seen in the whole well)” and the “inhibition on HIV” value (HIV-1 (MT4); according to Table 1) was “distinct inhibition on HIV”. The “Antigen test (IE)” value (U937 HIV-1 [2]) was “- (positive cells were not seen in the whole well)”, the ED50 (Plasmodium Berghei) was 0.24 mg/kg and the NOAEL [3] was 30.2 mg/kg/day. For the same molecule, the “Infected rate of macrophages” value (Toxoplasma Gendei; 50 μg/ml) was 0.67, the “No. of parasites in 100 macrophages” value (Toxoplasma Gendei; 50 μg/ml) was 2.67 and the “Infected rate of macrophages” value (Toxoplasma Gendei; 100 μg/ml) was 0. The “No. of parasites in 100 macrophages” value (Toxoplasma Gendei; 100 μg/ml) was 0, the “Infected rate of macrophages” value (Toxoplasma Gendei; 200 μg/ml) was 0 and the “No. of parasites in 100 macrophages” value (Toxoplasma Gendei; 200 μg/ml) was 0. The inhibition at 50 µg/mL (Toxoplasma Gendei; 50 μg/ml, read-out: Inhibition rate (No. of parasites in 100 macrophages)) was 99.5%, the inhibition at 50 µg/mL (Toxoplasma Gendei; 50 μg/ml, read-out: Inhibition rate (infected rate of macrophages)) was 99.1% and the inhibition at 100 µg/mL (Toxoplasma Gendei; 100 μg/ml, read-out: Inhibition rate (No. of parasites in 100 macrophages)) was 100%. It also gave an inhibition at 100 µg/mL (Toxoplasma Gendei; 100 μg/ml, read-out: Inhibition rate (infected rate of macrophages)) of 100%, an inhibition at 200 µg/mL (Toxoplasma Gendei; 200 μg/ml, read-out: Inhibition rate (No. of parasites in 100 macrophages)) of 100% and an inhibition at 200 µg/mL (Toxoplasma Gendei; 200 μg/ml, read-out: Inhibition rate (infected rate of macrophages)) of 100%. The “inhibition on Toxoplasma Gendei in vitro” value (Toxoplasma Gendei; in words) was “obvious inhibition on Toxoplasma Gendei in vitro”.
